These results are taken from ChEMBL document CHEMBL1149079, “A novel sesquiterpene quinone from Hainan sponge Dysidea villosa” (Bioorg Med Chem Lett, 2009).

SMILES strings stand for the structures. Active and inactive are the calls of the source. The calls are words filed in the database; no cut-off is given here.

For assay [1], the system named is Human immunodeficiency virus 1. Description: Antiviral activity against HIV1. It is filed as functional, organism-based.
Assay [2] deals with HeLa. Description: Cytotoxicity against human HeLa cells. It is filed as functional, cell-based.
The target of assay [3] is T1, Tyrosine-protein phosphatase non-receptor type 1 (Homo sapiens, UniProt P18031).
T1 sequence (P18031 whole entry): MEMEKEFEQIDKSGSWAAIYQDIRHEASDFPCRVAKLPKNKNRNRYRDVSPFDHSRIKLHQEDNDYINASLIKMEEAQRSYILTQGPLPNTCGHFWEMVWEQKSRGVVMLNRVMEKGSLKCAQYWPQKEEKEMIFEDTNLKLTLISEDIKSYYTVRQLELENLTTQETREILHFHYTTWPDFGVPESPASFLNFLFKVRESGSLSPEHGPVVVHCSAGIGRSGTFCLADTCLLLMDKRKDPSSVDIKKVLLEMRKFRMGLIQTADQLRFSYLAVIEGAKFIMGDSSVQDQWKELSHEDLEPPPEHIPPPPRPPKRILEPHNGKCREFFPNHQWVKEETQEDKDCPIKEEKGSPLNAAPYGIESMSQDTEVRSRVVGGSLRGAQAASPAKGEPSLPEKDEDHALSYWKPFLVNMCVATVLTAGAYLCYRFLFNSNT
As to the kind of experiment: Inhibition of human PTP1B.

The subject of assay [4] is 3T3-L1. As to the kind of experiment: Induction of membrane translocation of GLUT4 transporter in mouse 3T3L1 cells. The format is functional, cell-based.
The subject of assay [5] is CHO-K1. Description: Induction of membrane translocation of GLUT4 transporter in CHOK1 cells. The format is functional, cell-based. The note with it: Cricetulus griseus.
Assay [6] has as its system 3T3-L1. Description: Increase in glucose uptake in mouse 3T3L1 cells relative to control. The format is functional.
Assay [7] concerns CHO-K1. As to the kind of experiment: Activation of insulin signaling pathway in CHOK1 cells. It is filed as functional, cell-based. The note with it: Cricetulus griseus.
Assay [8] relates to 3T3-L1. Description: Activation of insulin signaling pathway in mouse 3T3L1 cells. The format is functional, cell-based.

In the case of `COC1=CC(=O)C=C(C[C@@]2(C)CC[C@]3(C)C(C)=CCC[C@H]3[C@H]2C)C1=O`, in assay [1], the outcome was inactive. The IC50 in assay [2] was 19.4 µM; in assay [3] it was 39.5 µM.
Consider `COC1=CC(=O)C(O)=C(C[C@@]2(C)CC[C@]3(C)C(C)=CCC[C@H]3[C@H]2C)C1=O` [BOLINAQUINONE], for which the result in assay [1] was inactive. This molecule displayed a half-inhibitory concentration (IC50) in assay [2] of 5.45 µM.
`CC1=CCC[C@H]2[C@](C)(CC3=CC(=O)C=CC3=O)[C@@H](C)CC[C@]12C`: in assay [1], the result was inactive.
Turning to `CC1=CCC[C@H]2[C@@H](C)[C@@](C)(CC3=C(O)C(=O)C=C(NCCS(=O)(=O)O)C3=O)CC[C@]12C` [DYSIDINE], the result in assay [4], in assay [5], in assay [7] and in assay [8] was Active. In assay [1], the result was inactive. Besides, the Activity in assay [6] came to 2.3. Further, it took 6.7 µM to reach half-maximal inhibition in assay [3] (IC50).
For `CC1=CCC[C@H]2[C@](C)(Cc3cc(O)ccc3O)[C@@H](C)CC[C@]12C`, the result in assay [1] was inactive.
